This is an account of results in patent publication US4277468A, “11-Methylene steroids, their preparation and pharmaceutical preparations containing them” (Schering Aktiengesellschaft, priority 1979, dated 1981).

One data set has as its system ovulation. In words: Ovulation inhibition test on rats, subcutaneous application, determined by tubal inspection. The format is in vivo. Here is the method: OVULATION INHIBITION IN RATS AFTER
SUBCUTANEOUS APPLICATION
The ovulation inhibition was determined by tubal inspection.

Another data set can be described thus: Androgenic side effects. The following applies: in words, relative to B.

Consider `C#C[C@]1(O)CC[C@H]2[C@@H]3CCC4=CC(=O)CC[C@@H]4[C@H]3C(=C)C[C@@]21CC` [B, 17α-ethynyl-17β-hydroxy-18-methyl-11-methylene-4-estren-3-one, reference compound], for which the “Ovulation inhibition in rats after subcutaneous application (% inhibition)” value in the data set on ovulation (dose 0.03 mg) is 0%; with ovulation (dose 0.1 mg), 100%.
For `C=C1C[C@@]2(CC)[C@@H](CC[C@@]2(O)C#CCl)[C@@H]2CCC3=CC(=O)CC[C@@H]3[C@@H]12` [A, 17α-chloroethynyl-17β-hydroxy-18-methyl-11-methylene-4-estren-3-one], the “Androgenic side effects compared with B” value in “Androgenic side effects” is given as “less androgenic side effects than B”. Further, the “Ovulation inhibition in rats after subcutaneous application (% inhibition)” value is 83% with ovulation (dose 0.03 mg) and 100% with ovulation (dose 0.1 mg). In addition, the “Ovulation inhibition strength relative to ethynyl compound B” value in the data set on ovulation (seen from the table) is reported as “at least three times stronger than ethynyl compound B”.
